Assay results taken from paper PMC5484173, “CB1 Allosteric Modulator Org27569 Is an Antagonist/Inverse Agonist of ERK1/2 Signaling” (Cannabis and Cannabinoid Research, 2016).
Several values for one entry are separate records, joined by “and”; a condition that tells them apart may be missing. Equal values may be shown once. Entries after “also recorded” stand apart in the source; their conditions may differ. Read-outs that look alike come from different tables or passages of the source.

Key:
[1] = target: T1, human cannabinoid type-1 receptor (hCB1) (Homo sapiens, UniProt P21554); assay type: cell-based
T1 construct: expressed in transfected cells
T1 sequence (P21554 whole entry): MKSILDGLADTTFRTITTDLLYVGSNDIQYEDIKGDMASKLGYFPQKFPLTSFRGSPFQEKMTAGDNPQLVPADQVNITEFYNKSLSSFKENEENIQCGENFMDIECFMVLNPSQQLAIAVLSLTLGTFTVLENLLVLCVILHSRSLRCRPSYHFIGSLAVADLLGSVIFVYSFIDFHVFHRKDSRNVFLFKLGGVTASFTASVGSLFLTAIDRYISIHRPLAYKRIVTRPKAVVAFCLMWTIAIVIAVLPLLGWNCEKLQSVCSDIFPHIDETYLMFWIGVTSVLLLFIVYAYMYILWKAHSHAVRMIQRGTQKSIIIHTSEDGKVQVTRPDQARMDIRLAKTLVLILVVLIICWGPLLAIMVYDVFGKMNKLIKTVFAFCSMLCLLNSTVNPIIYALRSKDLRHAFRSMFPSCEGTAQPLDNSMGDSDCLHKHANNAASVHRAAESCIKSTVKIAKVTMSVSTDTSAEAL

GFP-rat CB1 receptor = target: T2, GFP-rat CB1 receptor (Rattus norvegicus, UniProt P20272); test: Receptor internalization (puncta count) in GFP-rat CB1 HEK293 cells; assay type: cell-based; details: 20-120 min
T2 construct: expressed in transfected cells
T2 sequence (P20272 whole entry): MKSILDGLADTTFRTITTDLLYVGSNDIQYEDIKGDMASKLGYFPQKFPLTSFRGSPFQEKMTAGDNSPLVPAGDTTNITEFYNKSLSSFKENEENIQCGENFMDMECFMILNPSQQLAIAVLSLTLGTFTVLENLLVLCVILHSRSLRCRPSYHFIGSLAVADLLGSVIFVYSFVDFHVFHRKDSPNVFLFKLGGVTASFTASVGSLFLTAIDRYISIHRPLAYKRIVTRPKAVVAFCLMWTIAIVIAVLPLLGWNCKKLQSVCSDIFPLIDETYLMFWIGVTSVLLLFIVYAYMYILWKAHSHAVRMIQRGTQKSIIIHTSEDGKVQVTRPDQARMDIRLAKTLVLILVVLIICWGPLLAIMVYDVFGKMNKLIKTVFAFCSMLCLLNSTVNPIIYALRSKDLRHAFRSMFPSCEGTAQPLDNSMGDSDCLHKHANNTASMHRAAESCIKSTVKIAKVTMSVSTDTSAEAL
Procedure: (§1) Vendor authenticated human embryonic kidney (HEK293; American Type Culture Collection, Rockville, MD) cells were cultured in 5% fetal bovine serum (FBS) defined (Hyclone Labs, Logan, UT) in Dulbecco's modified Eagle's medium (DMEM; Corning Cellgro, Manassas, VA) at 37°C and 5% CO2. Cell lines were generated as previously described[32] by transfection of the untagged hCB1 or N-terminally green fluorescent protein (GFP)-tagged rat CB1 receptor with Lipofectamine 2000 (Life Technologies, Gaithersburg, MD). Cells were maintained in a culture medium with geneticin (0.5 mg/mL; G418) and not used after 25 passages.
(§2) Cells were plated in poly-D-lysine (PDL)-coated 6-well plates or 100-mm dishes (for fractionation experiments) to a confluency of ∼70–80% and serum starved for 24 h before all treatments. For internalization experiments, cells were plated on PDL-coated cover-slips in a 24-well format. For experiments examining Gi/o protein mediation, cells were exposed to PTX (200 ng/mL) for 18 h before drug treatment when appropriate.
For internalization experiments, GFP-rat CB1 HEK293 cells were plated on PDL-coated cover-slips in the 24-well format and treated with vehicle (0.2% DMSO), CP55,940 (1 μM), Org27569 (10 μM), or both for 20–120 min. Cell images were taken blinded, converted to grayscale in Photoshop CS5, and then analyzed in ImageJ. Background was subtracted by using a “rolling ball” algorithm (rolling=3). Puncta within the range (size=3–400, circularity=0.01–1.00) were counted. These parameters were used based on image resolution and brightness. The same conditions were applied to all the images and image analyses.

[2] = test system: hCB1-untransfected HEK293 cells; test: phospho-ERK1/2 western blot in hCB1-untransfected HEK293 cells; assay type: cell-based, human; details: Org27569 10 μM, 20-min treatment
Procedure: as §1, with “passages. […]” for “passages.”
Protein amount (20 μg) was determined by the Bradford method, separated by 10% SDS-PAGE, and transferred to nitrocellulose membranes. […]
Membranes were rinsed thrice in 0.1% Tween-20 in PBS before incubating with LiCor secondary antibodies (IRDye® 800CW Goat anti-Mouse; 1:6666; IRDye 680RD Goat anti-Rabbit; 1:10,000) at room temperature for 1 h. Blots were imaged using LiCor Odyssey imaging software, and phospho-ERK signal was normalized to total ERK and data expressed as percent of vehicle control. […]
Data were normalized as percent vehicle control and analyzed by one- or two-way ANOVA with Newman–Keuls and Bonferroni post hoc tests, and data were considered significant with p<0.05. […]

[3] = target: T1, human cannabinoid type-1 receptor (hCB1); test: Subcellular fractionation: phospho-ERK in nuclear-enriched and cytosolic fractions of hCB1 HEK293 cells; assay type: cell-based; details: Org27569 10 μM, 20 min, normalized to beta-actin
Procedure: as §2
Cells were treated by application of vehicle or antagonist followed immediately by application of vehicle or agonist and incubated in serum-free DMEM at 37°C for times indicated, then washed once with ice-cold phosphate-buffered saline (PBS), and lysed with buffer containing HEPES (50 mM), NaCl (150 mM), EDTA (1 mM), EGTA (1 mM), glycerol (10%), Triton X-100 (1%), MgCl2 (10 μM), NaF (25 mM), Na3VO4 (1 mM), para-nitrophenyl phosphate (20 mM) and EDTA-free protease inhibitor. Lysates were incubated on ice for 30 min, then centrifuged at 16,000 g for 30 min at 4°C, and supernatants were collected.
Cells were grown and treated as described above on 100-mm dishes and washed once with ice-cold PBS. […]
The initial S1 fraction was centrifuged at 10,000 g for 10 min and the resulting S2 fraction served as the cytosolic/membrane fraction. Protein was determined by the NanoDrop™ A280 assay (Thermo Scientific, Wilmington, DE). […]

CB1 = test system: CB1; parameters: method as in PMID 26044547; details: Chinese hamster ovary cells, AlphaScreen SureFire kit; cited from earlier work

CCCCCCC(C)(C)c1ccc([C@@H]2C[C@H](O)CC[C@H]2CCCO)c(O)c1 [CP55,940]
EC80 for ERK activation [1]: 6.1 nM
effect on ERK phosphorylation, agonist alone [1]: robust increase in ERK phosphorylation
receptor internalization (puncta), agonist alone (GFP-rat CB1 receptor; CP55,940 1 μM): increases in puncta

CCCCC/C=C\C/C=C\C/C=C\C/C=C\CCCC(=O)OC(CO)CO [2-AG, 2-arachidonoylglycerol]
EC80 for ERK activation ([1]; agonist alone, hCB1 HEK293 cells, 5 min): 1200 nM

CCc1c(C(=O)NCCc2ccc(N3CCCCC3)cc2)[nH]c2ccc(Cl)cc12 [Org27569]
bottom of the fit curve (phospho-ERK, percent of vehicle control) [1]: 111.3%±7.72%
effect on CP55,940-induced activation of ERK [1]: prevented CP55,940-induced activation of ERK
extent of antagonism of 2-AG-stimulated ERK activation [1]: did not completely attenuate
extent of antagonism of CP55,940-induced ERK activation [1]: fully antagonized
extent of antagonism of THC-induced ERK activation [1]: did not completely attenuate
pIC50±SE on ERK phosphorylation [1]: 6.78±0.273 and 6.783±0.273
effect on ERK phosphorylation, compound alone ([1]; 10.0 μM alone, 5-min incubation): small but nonsignificant reduction of ERK phosphorylation
effect on phospho-ERK levels in PTX-treated cells ([1]; Org27569 10.0 μM, 20 min, after overnight PTX (200 ng/mL)): not in PTX-treated cells
effect on basal ERK phosphorylation ([1]; Org27569 alone (10 μM), 20-min treatment, hCB1-transfected HEK293 cells, no PTX): significantly reduced basal ERK phosphorylation; also recorded: reduced basal ERK phosphorylation in hCB1-transfected; also recorded: produced a reduction in phospho-ERK levels in control cells
bottom of the fit curve (phospho-ERK, percent of vehicle control) ([1]; Org27569 concentration-response against 2-AG at EC80 (1.2 μM), 5 min): 196%±123.2%
pIC50±SE on ERK phosphorylation ([1]; no probe agonist (alone, basal ERK phosphorylation), 20 min): 6.86±0.214
IC50 ([1]; no probe agonist (alone, basal ERK phosphorylation), cells treated for 20 min): 139 nM
pIC50±SE on ERK phosphorylation ([1]; probe agonist 2-AG (1.2 μM, EC80), 5 min): 6.26±0.239
IC50 ([1]; probe agonist 2-AG (1.2 μM, EC80), cells treated for 5 min, read-out: IC50 on ERK phosphorylation): 546 nM
pIC50±SE on ERK phosphorylation ([1]; probe agonist THC (494 nM in table, 500 nM in text; EC80), 5 min): 6.38±0.394
IC50 ([1]; probe agonist THC (494 nM, EC80), cells treated for 5 min, read-out: IC50 on ERK phosphorylation): 417 nM
IC50 ([1]; read-out: IC50 on ERK phosphorylation): 165 nM
effect on basal ERK phosphorylation [2]: not in hCB1-untransfected HEK293 cells
receptor internalization, compound alone (GFP-rat CB1 receptor; Org27569 10 μM alone): did not significantly affect receptor internalization
effect on CP55,940-induced receptor internalization (increases in puncta) (GFP-rat CB1 receptor; Org27569 10 μM with CP55,940 1 μM): prevented
effect on cytosolic phospho-ERK levels ([3]; cytosolic fraction): significantly decreased
effect on nuclear phospho-ERK levels ([3]; nuclear-enriched fraction): significantly decreased
effect on THC-induced ERK activation (CB1): no effect
